This note sets out measurements from US11014902B2, “MYC G-quadruplex stabilizing small molecules and their use” (The United States of America, as represented by the …, priority 2015, dated 2021).

One test deals with SK-MEL-5. As to the kind of experiment: NCI-60 cell growth (SRB). The note with it: SK-MEL-5, Melanoma; 10 μM, 48 hours. The class given is cell-based. Here is the method: (§1) This example illustrates that Compounds 1 and 23 can be used in inhibit the growth of c-Myc expressing cancer cell lines in vitro. The NCI-60 panel of cancer cell lines (see Shoemaker, Nat. Rev. Cancer, 6, 813-823, 2006, and dtp.cancer.gov/discovery_development/nci-60/) was assayed for cell growth in the presence of 10 μM Compound 1 or Compound 23 for 48 hours. At 48 hours, the assay was terminated by fixation with TCA and determination of relative cell counts by addition of Sulforhodamine B (SRB, see Alley et al., Cancer Research, 48: 589-601, 1988.). Growth percent was determined by comparison of SRB reading of a duplicate plate of cells taken at the time of compound addition to the SRB reading at the termination of the treatment. The following table provides a summary of the percent of growth of each cell line in the panel compared to control (no treatment), as well as the mean delta and range of percent growth compared to control across the panel of cell lines for each treatment condition.

The test system of another test is SNB-75. As to the kind of experiment: NCI-60 cell growth (SRB). It is filed as cell-based. The note with it: SNB-75, CNS Cancer; 10 μM, 48 hours. How it is done: as §1
A further test concerns OVCAR-4. The test can be described thus: NCI-60 cell growth (SRB). The class given is cell-based. Conditions: OVCAR-4, Ovarian Cancer; 10 μM, 48 hours. Here is the method: as §1
The test system of the next test is OVCAR-3. The test can be described thus: NCI-60 cell growth (SRB). Conditions: OVCAR-3, Ovarian Cancer; 10 μM, 48 hours. The class given is cell-based. How it is done: as §1
The subject of a further test is NCI-H322M. As to the kind of experiment: NCI-60 cell growth (SRB). The class given is cell-based. The note with it: Non-Small Cell Lung Cancer, 10 μM, 48 hours. Here is the method:
as §1

The next test concerns TK-10. As to the kind of experiment: NCI-60 cell growth (SRB). It is filed as cell-based. The note with it: TK-10, Renal Cancer; 10 μM, 48 hours. Here is the method:
as §1

The next test relates to A498. As to the kind of experiment: NCI-60 cell growth (SRB). It is filed as cell-based. The note with it: A498, Renal Cancer; 10 μM, 48 hours. How it is done:
as §1

For another test, the system named is CAKI-1. The test can be described thus: NCI-60 cell growth (SRB). Conditions: CAKI-1, Renal Cancer; 10 μM, 48 hours. The class given is cell-based. Here is the method: as §1
A further test concerns OVCAR-8. The test can be described thus: NCI-60 cell growth (SRB). It is filed as cell-based. Conditions: OVCAR-8, Ovarian Cancer; 10 μM, 48 hours. Here is the method: as §1
Another test has as its system NCI-H23. The test can be described thus: NCI-60 cell growth (SRB). The class given is cell-based. Conditions: NCI-H23, Non-Small Cell Lung Cancer; 10 μM, 48 hours. Here is the method: as §1
For the next test, the system named is SF-539. The test can be described thus: NCI-60 cell growth (SRB). The class given is cell-based. The note with it: SF-539, CNS Cancer; 10 μM, 48 hours. How it is done: as §1
The subject of a further test is NCI-H226. As to the kind of experiment: NCI-60 cell growth (SRB). The class given is cell-based. The note with it: NCI-H226, Non-Small Cell Lung Cancer; 10 μM, 48 hours. How it is done: as §1
Another test concerns MDA-MB-435. As to the kind of experiment: NCI-60 cell growth (SRB). The class given is cell-based. Conditions: MDA-MB-435, Melanoma; 10 μM, 48 hours. Here is the method: as §1
The subject of another test is UACC-62. As to the kind of experiment: NCI-60 cell growth (SRB). The class given is cell-based. The note with it: UACC-62, Melanoma; 10 μM, 48 hours. How it is done:
as §1

Another test has as its system UACC-257. As to the kind of experiment: NCI-60 cell growth (SRB). The note with it: UACC-257, Melanoma; 10 μM, 48 hours. It is filed as cell-based. How it is done:
as §1

The next test deals with KM12. As to the kind of experiment: NCI-60 cell growth (SRB). The class given is cell-based. Conditions: KM12, Colon Cancer; 10 μM, 48 hours. Here is the method:
as §1

The test system of test [1] is CA46 Burkitt's Lymphoma line. As to the kind of experiment: CA46 cell viability. It is filed as cell-based, human. Here is the method: Since two thirds of multiple myeloma cases involve deregulated c-MYC expression (Kuehl and Bergsagel, Blood 2012, 120, 2351; Shou, et al., Proc Natl Acad Sci USA 2000, 97, 228), we elected to evaluate the cell viability effects of Compound 1 in a multiple myeloma model. […] This suppression was maintained over 72 hours, which is notable given the characteristic rapid replenishment of the protein—a phenomenon that complicates targeting c-Myc at the protein level (FIG. 4C). This effect was maintained across a genetically diverse set of 4 multiple myeloma lines. We observed decreases in c-MYC translation in all lines tested, and this effect also correlated with decreases in viability (FIG. 4D).
Human multiple myeloma and Burkitt's Lymphoma cell lines L363, CA46, MM-1R, KMS-11, and MM-1S were cultured and authenticated as previously described (Simmons, et al., Molecular oncology 2014, 8, 261). All plasma derived cell lines were cultured in RPMI-1640 (2 mM L-glutamine, 10% fetal bovine serum (FBS), 100 U/ml penicillin, 100 μg/ml streptomycin: Gibco) and incubated at 37° C. with 5% CO2. […] MTS reagent was then directly added, incubated at 37° C. for 90 min, and absorbance of MTS formazan was read at 500 nm on an Omega 640 spectrophotometer. Percentage cell viability was normalized to the absorbance of untreated (DMSO) wells. […]

Take `Cc1ccc(NC(=O)c2c(C)oc3ccc(O)c(CN4CCCCCC4)c23)cc1` [Compound 1]: the “Growth Percent” value with SK-MEL-5 turned out to be 86.08%; with SNB-75, 78.34%; in the test on OVCAR-4, 82.06%; in the test on OVCAR-3, 101.03%; in the test on NCI-H322M, 97.51%; with TK-10, 92.66%. The “Growth Percent” value in the test with A498 is 64.12%; in the test with CAKI-1, 75.13%; in the test with OVCAR-8, 89.96%; in the test on NCI-H23, 90.23%; in the test with SF-539, 93.10%; in the test on NCI-H226, 85.66%. The “Growth Percent” value in the test on MDA-MB-435 is given as 95.94%; in the test with UACC-62, 102.82%; in the test on UACC-257 it was 112.11%; in the test with KM12, 102.59%. Besides, the cell viability result in test [1] is “negligible changes”.

Turning to `Cc1oc2ccc(O)c(CN3CCCCCC3)c2c1C(=O)Nc1ccc(C(F)(F)F)cc1` [Compound 23], the “Growth Percent” value in the test with SK-MEL-5 stood at 69.97%; in the test with SNB-75 it was 50.57%; in the test on OVCAR-4, 58.58%; in the test on OVCAR-3 it was 62.02%; in the test on NCI-H322M, 69.34%; in the test on TK-10, 81.06%. Moreover, the “Growth Percent” value with A498 was found to be 50.48%; in the test with CAKI-1, 50.46%; with OVCAR-8, 66.34%; with NCI-H23, 69.93%; in the test with SF-539 it was 61.23%; in the test with NCI-H226 it was 72.45%. Besides, the “Growth Percent” value in the test on MDA-MB-435 is 58.22%; in the test on UACC-62, 67.27%; with UACC-257, 82.00%; in the test with KM12 it was 65.50%.
